Results published in article PMC10283505, “CVM-1118 (foslinanib), a 2-phenyl-4-quinolone derivative, promotes apoptosis and inhibits vasculogenic mimicry via targeting TRAP1” (Pathology and Oncology Research, 2023).
pKd: −log10 of the molar value. Several values for one entry are separate records, joined by “and”; a condition that tells them apart may be missing. Equal values may be shown once. Entries after “also recorded” stand apart in the source; their conditions may differ.

Key:
[1] = molecular target: Integrin β4 (Homo sapiens, UniProt P16144); assay: Surface plasmon resonance (Biacore); format: binding; conditions: Integrin β4, SPR
Sequence of Integrin β4 (P16144 28-1822): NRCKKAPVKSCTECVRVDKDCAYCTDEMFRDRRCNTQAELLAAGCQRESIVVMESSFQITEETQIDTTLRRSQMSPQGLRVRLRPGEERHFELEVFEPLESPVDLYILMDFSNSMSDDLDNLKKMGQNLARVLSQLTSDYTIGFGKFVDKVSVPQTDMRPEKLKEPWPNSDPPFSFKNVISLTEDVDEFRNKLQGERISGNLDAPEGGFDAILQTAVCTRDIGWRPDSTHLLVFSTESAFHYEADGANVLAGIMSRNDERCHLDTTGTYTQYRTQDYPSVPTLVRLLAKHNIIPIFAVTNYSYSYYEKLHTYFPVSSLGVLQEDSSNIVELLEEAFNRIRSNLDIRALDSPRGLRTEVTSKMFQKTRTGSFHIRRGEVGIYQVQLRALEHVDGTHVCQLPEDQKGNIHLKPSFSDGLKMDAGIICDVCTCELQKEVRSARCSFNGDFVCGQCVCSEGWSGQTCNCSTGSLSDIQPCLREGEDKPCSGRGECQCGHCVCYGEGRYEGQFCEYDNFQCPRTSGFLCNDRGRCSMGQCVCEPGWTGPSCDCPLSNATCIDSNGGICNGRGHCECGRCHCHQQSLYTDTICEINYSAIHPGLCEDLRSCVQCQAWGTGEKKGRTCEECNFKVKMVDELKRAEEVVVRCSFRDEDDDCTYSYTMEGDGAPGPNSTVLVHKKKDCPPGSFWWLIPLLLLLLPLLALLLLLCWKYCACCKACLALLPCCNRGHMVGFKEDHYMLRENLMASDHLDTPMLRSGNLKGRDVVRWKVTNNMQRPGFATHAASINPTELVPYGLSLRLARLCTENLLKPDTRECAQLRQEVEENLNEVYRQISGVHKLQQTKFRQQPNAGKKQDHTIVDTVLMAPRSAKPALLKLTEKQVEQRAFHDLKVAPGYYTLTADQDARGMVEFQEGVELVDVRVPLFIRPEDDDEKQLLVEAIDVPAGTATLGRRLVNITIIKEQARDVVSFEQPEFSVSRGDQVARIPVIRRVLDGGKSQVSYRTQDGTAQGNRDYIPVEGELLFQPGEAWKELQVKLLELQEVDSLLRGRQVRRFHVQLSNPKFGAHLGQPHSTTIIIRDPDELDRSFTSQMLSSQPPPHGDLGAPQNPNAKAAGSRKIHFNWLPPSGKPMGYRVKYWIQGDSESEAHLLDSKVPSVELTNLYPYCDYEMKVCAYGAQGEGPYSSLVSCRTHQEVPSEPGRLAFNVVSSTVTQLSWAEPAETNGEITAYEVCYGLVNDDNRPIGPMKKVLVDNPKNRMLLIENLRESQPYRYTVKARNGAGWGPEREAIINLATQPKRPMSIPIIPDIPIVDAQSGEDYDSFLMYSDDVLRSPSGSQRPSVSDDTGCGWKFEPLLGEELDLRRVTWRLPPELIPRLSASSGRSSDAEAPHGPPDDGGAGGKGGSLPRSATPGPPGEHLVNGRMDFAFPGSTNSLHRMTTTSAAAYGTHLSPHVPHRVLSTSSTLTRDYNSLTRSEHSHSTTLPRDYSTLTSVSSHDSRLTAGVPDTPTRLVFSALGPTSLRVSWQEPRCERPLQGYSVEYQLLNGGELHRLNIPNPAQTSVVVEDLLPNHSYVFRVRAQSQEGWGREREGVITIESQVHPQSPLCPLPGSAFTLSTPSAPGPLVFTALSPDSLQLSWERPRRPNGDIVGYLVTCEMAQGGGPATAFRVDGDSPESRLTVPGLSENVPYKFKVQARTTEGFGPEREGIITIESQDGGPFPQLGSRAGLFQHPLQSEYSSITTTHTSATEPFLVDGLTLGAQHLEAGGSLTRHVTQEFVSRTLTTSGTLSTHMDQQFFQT

[2] = molecular target: T1, CEACAM5 (Homo sapiens, UniProt P06731); assay: Surface plasmon resonance (Biacore); format: binding; conditions: CEACAM5, SPR
T1 sequence (P06731 35-702): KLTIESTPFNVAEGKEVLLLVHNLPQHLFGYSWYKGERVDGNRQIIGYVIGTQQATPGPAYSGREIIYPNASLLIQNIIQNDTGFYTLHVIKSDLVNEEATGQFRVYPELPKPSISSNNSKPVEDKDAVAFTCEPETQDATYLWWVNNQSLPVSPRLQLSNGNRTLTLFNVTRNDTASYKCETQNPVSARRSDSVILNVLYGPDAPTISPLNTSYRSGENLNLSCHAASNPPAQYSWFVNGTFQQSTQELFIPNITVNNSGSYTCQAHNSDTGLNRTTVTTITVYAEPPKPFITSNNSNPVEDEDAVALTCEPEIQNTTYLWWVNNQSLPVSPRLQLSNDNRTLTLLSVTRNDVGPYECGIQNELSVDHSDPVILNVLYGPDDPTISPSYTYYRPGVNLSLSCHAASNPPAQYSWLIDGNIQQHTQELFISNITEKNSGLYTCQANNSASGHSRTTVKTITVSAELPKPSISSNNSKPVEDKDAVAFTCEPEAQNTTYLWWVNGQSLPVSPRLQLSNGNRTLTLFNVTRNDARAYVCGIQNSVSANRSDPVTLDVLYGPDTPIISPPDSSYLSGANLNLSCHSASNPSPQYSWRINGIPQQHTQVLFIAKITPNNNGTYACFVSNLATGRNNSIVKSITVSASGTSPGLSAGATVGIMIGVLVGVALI

[3] = molecular target: TGFβ1/1 (HIC5) (Homo sapiens, UniProt O43294); assay: Surface plasmon resonance (Biacore); format: binding; conditions: TGFβ1/1, SPR
Sequence of TGFβ1/1 (HIC5) (O43294 whole entry): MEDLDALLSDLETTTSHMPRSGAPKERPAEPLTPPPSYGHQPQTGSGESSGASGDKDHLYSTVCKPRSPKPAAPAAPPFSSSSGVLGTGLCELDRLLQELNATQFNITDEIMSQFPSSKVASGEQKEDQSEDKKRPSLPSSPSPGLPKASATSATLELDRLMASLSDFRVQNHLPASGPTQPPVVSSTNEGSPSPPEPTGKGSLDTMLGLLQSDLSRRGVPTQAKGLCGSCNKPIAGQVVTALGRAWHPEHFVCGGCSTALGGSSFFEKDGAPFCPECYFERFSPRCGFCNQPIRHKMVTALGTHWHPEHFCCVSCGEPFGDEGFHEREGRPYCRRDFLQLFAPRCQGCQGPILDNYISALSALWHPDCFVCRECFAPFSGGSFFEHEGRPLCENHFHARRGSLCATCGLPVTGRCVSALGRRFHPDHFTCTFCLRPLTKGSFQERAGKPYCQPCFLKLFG

[4] = test system: SF-539; assay: NCI 60 cytotoxicity screening; format: cell-based; conditions: Homo sapiens; SF-539, CNS
[5] = molecular target: T2, human Hsp90 recombinant protein (HSP90AB1) (Homo sapiens, UniProt P08238); assay: Surface plasmon resonance (Biacore); format: binding; conditions: recombinant human Hsp90 beta protein
T2 construct: purchased Abcam ab131923
T2 sequence (P08238 whole entry): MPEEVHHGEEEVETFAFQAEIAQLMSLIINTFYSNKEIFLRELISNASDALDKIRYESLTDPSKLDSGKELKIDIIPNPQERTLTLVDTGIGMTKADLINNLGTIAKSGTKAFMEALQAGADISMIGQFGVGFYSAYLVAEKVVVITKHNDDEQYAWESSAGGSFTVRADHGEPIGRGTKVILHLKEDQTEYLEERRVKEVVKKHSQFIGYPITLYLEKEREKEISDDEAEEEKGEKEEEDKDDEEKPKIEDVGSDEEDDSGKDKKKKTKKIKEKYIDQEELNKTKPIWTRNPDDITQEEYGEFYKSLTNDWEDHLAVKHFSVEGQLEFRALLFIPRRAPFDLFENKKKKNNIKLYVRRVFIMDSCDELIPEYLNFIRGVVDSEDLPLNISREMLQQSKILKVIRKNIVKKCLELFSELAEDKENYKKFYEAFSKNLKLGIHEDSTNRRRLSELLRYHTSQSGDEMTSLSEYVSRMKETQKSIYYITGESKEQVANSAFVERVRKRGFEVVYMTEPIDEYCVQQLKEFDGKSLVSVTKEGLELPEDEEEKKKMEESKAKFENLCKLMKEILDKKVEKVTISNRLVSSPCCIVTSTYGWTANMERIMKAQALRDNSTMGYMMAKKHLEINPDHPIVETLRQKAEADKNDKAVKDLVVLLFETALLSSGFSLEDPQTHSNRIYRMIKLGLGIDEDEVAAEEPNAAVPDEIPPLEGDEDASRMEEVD
Method: (§1) To confirm the molecular binding of the targeted protein, Surface Plasmon Resonance (SPR) was performed with a Biacore 3000. TRAP1 recombinant protein (Abcam, ab123775) or human Hsp90 recombinant protein (HSP90AB1, Abcam, ab131923) were immobilized on a CM5 sensor chip surface using the amine coupling method according to the manufacturer’s instruction (Biacore, GE Healthcare). CVM-1125 was dissolved in sodium carbonate buffer (pH 9) and then diluted in HBS-EDTA-P20 buffer to desired concentrations (five serial dilutions from 1 × 10^−5 to 1 × 10^−8 M) and injected at flow 30 μL/min with KINJET 60/180 %pos, analyte position, volume, and dissociation time. Specific binding was calculated using BiaEval 3 software.

[6] = test system: T-47D; assay: NCI 60 cytotoxicity screening; format: cell-based; conditions: Homo sapiens, T47D, Breast
[7] = molecular target: T3, TRAP1 (Homo sapiens, UniProt Q12931); assay: Surface plasmon resonance (Biacore); format: binding; parameters: purchased Abcam ab123775; conditions: TRAP1, SPR
T3 sequence (Q12931 60-704): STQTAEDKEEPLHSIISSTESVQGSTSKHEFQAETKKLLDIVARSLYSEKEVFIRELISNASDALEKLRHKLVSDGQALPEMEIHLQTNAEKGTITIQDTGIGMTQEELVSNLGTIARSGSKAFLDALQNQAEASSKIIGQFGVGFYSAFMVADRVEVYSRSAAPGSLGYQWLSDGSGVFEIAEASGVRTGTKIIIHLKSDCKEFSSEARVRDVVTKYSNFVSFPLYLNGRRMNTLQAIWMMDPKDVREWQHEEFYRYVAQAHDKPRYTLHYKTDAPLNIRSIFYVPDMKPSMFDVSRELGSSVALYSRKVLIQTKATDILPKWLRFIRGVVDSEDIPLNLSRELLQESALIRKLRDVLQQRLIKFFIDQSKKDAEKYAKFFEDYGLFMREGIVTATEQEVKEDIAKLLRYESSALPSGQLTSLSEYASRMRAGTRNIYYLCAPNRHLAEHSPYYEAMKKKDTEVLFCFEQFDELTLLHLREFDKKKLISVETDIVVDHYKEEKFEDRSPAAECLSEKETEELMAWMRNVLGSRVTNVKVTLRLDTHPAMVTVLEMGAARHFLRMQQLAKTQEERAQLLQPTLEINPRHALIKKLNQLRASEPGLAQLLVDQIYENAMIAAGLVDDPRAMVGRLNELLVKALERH
Method: as §1

[8] = test system: SNB-75; assay: NCI 60 cytotoxicity screening; format: cell-based; conditions: Homo sapiens; SNB-75, CNS
[9] = test system: HCT-116; assay: In vivo vasculogenic mimicry (CD31−/RBC+ channels) in orthotopic HCT-116 xenograft; parameters: species or system BALB/c nude mice; conditions: 100 mg/kg oral, excised colon tumor tissues, vs vehicle
Method: This animal study was contracted to CrownBio International R&D Center (Beijing, China) and was conducted under the approval of the Animal Ethics Committee at CrownBio in compliance with institutional and national guidelines. Seven-to eight-week-old female BALB/c nude mice were obtained from HFK Bio-Technology Co., Ltd. (Beijing, China). HCT-116 cells (2 × 10^6) were suspended in 20 μL PBS and then injected into the cecal wall. Treatment began on day 14 after cell inoculation when tumor reached ∼100 mm^3 measured in a satellite group of three mice. Treatment groups include vehicle control [PEG400:pH 10 carbonate buffer (40:60)], CVM-1118 at 20, 50, and 100 mg/kg given orally daily for 28 days, and CVM-1118 at 20 mg/kg given as intravenous injection once every 2 days for 7 times. Tumor volumes were measured at the end of in-life study on day 43. […] Briefly, rabbit anti-human CD31 antibody (Abcam) was used as the primary Ab for the staining and the number of channels with CD31+/red blood cell (RBC)+, or CD31−/RBC+ were counted based on five light fields (×200) on the whole section of each sample in each group under microscope. […] Statistical analysis for VM formation was evaluated using Mann-Whitney test. All data were analyzed using GraphPad Prism 9.5.

| SMILES | Association (ka) [1] | Dissociation (kd) [1] | KD (kd/ka) [1] | Association (ka) [2] | Dissociation (kd) [2] | KD (kd/ka) [2] | Association (ka) [3] | Dissociation (kd) [3] | KD (kd/ka) [3] | GI50 [4] [nM] | interaction with Hsp90 by SPR [5] | GI50 [6] [nM] | kon ([7]; read-out: Association (ka)) [M⁻¹ s⁻¹] | pKd ([7]; read-out: KD (kd/ka)) | GI50 [8] [nM] | reduction of VM network formation (VM channels) [9] [%] |
| --- | --- | --- | --- | --- | --- | --- | --- | --- | --- | --- | --- | --- | --- | --- | --- | --- |
| COc1ccc2[nH]c(-c3cccc(F)c3)cc(=O)c2c1O [CVM-1125] | No dose dependent interaction | No dose dependent interaction | No dose dependent interaction | No interaction | No interaction | No interaction | No dose dependent interaction | No dose dependent interaction | No dose dependent interaction | 26.2 | no specific interaction; also recorded: not interacting | 28 | 30200 | 7.17 and 7.18 | 15 | – |
| COc1ccc2[nH]c(-c3cccc(F)c3)cc(=O)c2c1OP(=O)(O)O [CVM-1118] | – | – | – | – | – | – | – | – | – | – | – | – | – | – | – | 85 |
